What was measured:
keratinocytes = test: Taurine induced NAD+ stimulation in cultured keratinocytes; format: cell-based; conditions: for NAD+ level: keratinocytes
Description: Cell studies were conducted in which the effects of taurine and niacinamide on the NAD+ production were assessed when keratinocytes were cultured with these raw materials. In all of the tested conditions supplemented with actives, the NAD+ of the cells were increased compared to the untreated control.
Taurine has been identified as an active of interest for skin care due to its potential benefits to boost cell energy. This report explores the effect of supplementing taurine with keratinocytes to understand its effect on increasing NAD+ level in the cells. […] In our in vitro study, we observed that vitamin C, vitamin E and ferulic acid imparts significant benefits to the cell cycle and cell division. When combined with anti-aging catalyst composition, the treatment not only enhances skin renewal and resurfacing benefits but also maintains the positive effects on cell cycle and cell division. This is evident in the more pronounced impact on pathways related to skin cornification and epidermis development compared to single type treatment.

[1] = system: UVB-induced wrinkle formation; conditions: oral taurine supplementation; cited from earlier work
[2] = system: diabetic precataractous lens; conditions: dietary taurine supplementation; cited from earlier work

SMILES	NAD+ level (keratinocytes; 0.2% niacinamide)	UVB-induced wrinkle formation [1]	MDA levels, GSSG/GSH, and NAD+/NADH [2]	NAD+ level (keratinocytes; 0.05% taurine)	NAD+ of the cells compared to the untreated control (keratinocytes; keratinocytes cultured with raw material)
NC(=O)c1cccnc1 [niacinamide, reference compound]	higher level of NAD+ compared to 0.05% niacinamide				
NCCS(=O)(=O)O [taurine]		suppress	ameliorates	comparable NAD+ level as compared to 0.2% niacinamide	stimulatory effect in increasing the NAD+ level

Source: patent US20250255793A1, “ANTI-AGING CATALYST COMPOSITION COMPRISING A BLEND OF COSMETIC ACIDS” (LOREAL, priority 2024, published 2025)
